Among the data in PMC12017303 (Science Advances, 2025) are EC50 values, retold here.

Broadly, the EC50 is the concentration needed to bring the measured effect to its halfway point.

The experiment concerns α-HCoV 229E, β-HCoV OC43, MERS-CoV, SARS-CoV, SARS-CoV-2 variants (Delta, BA.2). Format: cell-based. To be noted: read-out: EC50 against all tested variants.

Consider `C#CCn1c(C)c(-n2nnc3ccccc32)c(=O)n(-c2cncc3ccccc23)c1=O` [AVI-4516], for which the EC50 was below 3000 nM.
